Paper PMC9784969, “SARS-CoV-2 Inhibitors Identified by Phenotypic Analysis of a Collection of Viral RNA-Binding Molecules” (Pharmaceuticals, 2022)
Where two headings read alike, the source gives them in different places.

Assays:
SARS-CoV-2 USA-WA1/2020 [1] = experiment: microbe, parasite or virus in culture; type: cell-based; details: read-out: SARS-CoV-2 EC50
HIV-1 = details: cited from earlier work
[2] = system: subdomain IIB of the rev recognition element (RRE) of the HIV-1 genomic RNA; details: cited from earlier work
in vitro [3] = details: human, uninfected 293T-ACE2 cells
SARS-CoV-2 USA-WA1/2020 [4] = experiment: microbe, parasite or virus in culture; type: cell-based; details: read-out: SARS-CoV-2 EC50; remark: listed apart in the source
in vitro [5] = details: African green monkey, uninfected Vero E6 cells
SCoV2 USA-WA1/2020 = type: cell-based; details: 293T-ACE2, MOI 2, 8-h single cycle
SCoV2 RNA elements = experiment: ligand-based 1H NMR (1D, CPMG, wLOGSY), six RNA elements compared; type: binding, SARS-CoV-2; details: CSP, LB, CPMG and wLOGSY perturbations; 300 µM compound
From the text: We first used ligand-based ^1H NMR experiments to analyze the interaction of the selected compounds with each of the six RNA elements specified above, including one-dimensional, Carr–Purcell–Meiboom–Gill (CPMG) and waterLOGSY (wLOGSY) experiments. These assays detect changes in the ^1H signals of the ligand upon RNA association (Figure 4A), and have been successfully used to evaluate small-molecule binding to RNA motifs, including elements of the SCoV2 genome.
Each ligand (at a concentration of 300 μM) was mixed with a smaller quantity of RNA in an aqueous solution containing 25 mM potassium phosphate (pH 6.2), 150 mM KCl, 3 mM MgCl2, and 10% D2O. RNA–ligand molar ratios of 1:50 and 1:100 were explored (with 6 and 3 μM RNA, respectively). […] The water signal was suppressed from one-dimensional experiments with a watergate sequence. The CPMG experiments were acquired with 100, 200, 300, and 400 ms relaxation delays before acquisition, and water suppression was achieved by presaturation. wLOGSY experiments employed a selective Gaussian 180° pulse at the water frequency and an NOE mixing time of 1.5 s and suppressed the water signal by excitation sculpting. All spectra were acquired in the absence and presence of RNA.
All ligand signals were individually analyzed. For clomiphene citrate, the signals corresponding to cis and trans forms were identified by comparing the spectrum of clomiphene citrate with those of the individual stereoisomers. In CPMG experiments, the binding of the compounds to the different RNA sequences was quantified as 100 minus the percentage of ligand signal area in the +RNA CPMG spectrum relative to the corresponding signal area in the -RNA CPMG spectrum. In wLOGSY experiments, binding was quantified with the LOGSY factor, or % of ligand signal in the difference spectrum between the +RNA and –RNA wLOGSY spectra, relative to the corresponding signal in the one-dimensional -RNA reference spectrum. In one-dimensional experiments, line broadening (LB) was quantified as explained for CPMG spectra.

[6] = Vero E6 cells, MOI 0.025, two days
[7] = ref 2 (Table S1 list: Prado et al. 2018)
[8] = ref 4 (Table S1 list: Medina-Trillo et al. 2020)
[9] = Severe acute respiratory syndrome coronavirus 2, Vero C1008, 48 h, Vero E6 cells, MOI 0.025, two days
[10] = Severe acute respiratory syndrome coronavirus 2, 293T/ACE2, 48 h
[11] = Severe acute respiratory syndrome coronavirus 2, Vero C1008, 48 h
[12] = ref 3 (Table S1 list: Simba-Lahuasi et al., Unpublished results)
[13] = ref 1 (Table S1 list: Prado et al. 2016)
[14] = ref 5 (Table S1 list: Sedgwick, Ph.D. thesis 2018)

## CN(C)CCOc1cc2c(c3ccccc13)-c1ccccc1C2=O [1a]
SARS-CoV-2 USA-WA1/2020 [1]; [6]
  EC50: > 20 µM
HIV-1; [7]
  Previous target virus activity: yes
HIV-1; [8]
  Previous target virus activity: yes
[2]; [7]
  Previous target RNA binding: yes
[2]; [8]
  Previous target RNA binding: yes

## OC(CNCC1CCCO1)Cn1c2ccc(Br)cc2c2cc(Br)ccc21 (centres unmarked) [1b]
HIV-1; [7]
  Previous target virus activity: yes
HIV-1; [8]
  Previous target virus activity: no
[2]; [7]
  Previous target RNA binding: yes
[2]; [8]
  Previous target RNA binding: yes

## CCN(CC)CCNc1cc(-c2cccs2)nc2ccccc12 [1d]
In vitro [3]
  CC50 at 2 days: 7.5 µM
SARS-CoV-2 USA-WA1/2020 [1]; [9]
  EC50: 6.64 µM
SARS-CoV-2 USA-WA1/2020 [1]; [6]
  EC50: 6.24 µM
HIV-1; [7]
  Previous target virus activity: yes
[2]; [7]
  Previous target RNA binding: yes

## Fc1nc(N2CCNCC2)c(F)c(Sc2ccc(Cl)cc2)c1F [2a]
SARS-CoV-2 USA-WA1/2020 [4]; [10]
  EC50: 0.63 µM
In vitro [3]
  CC50 at 2 days: 5.32 µM
SARS-CoV-2 USA-WA1/2020 [1]; [11]
  EC50: 6.24 µM
HIV-1; [7]
  Previous target virus activity: yes
[2]; [7]
  Previous target RNA binding: yes
In vitro [5]
  CC50 at 2 days: > 20 µM

## COc1ccc(-c2cc(C)c(-c3cc(CCN)c(OC)cc3CCN)cc2C)cc1CCN [3a]
SARS-CoV-2 USA-WA1/2020 [1]; [9]
  EC50: > 20 µM
HIV-1; [8]
  Previous target virus activity: yes
[2]; [8]
  Previous target RNA binding: yes
In vitro [5]
  CC50 at 2 days: > 20 µM

## CCC(=C(c1ccccc1)c1ccc(OCCN(C)C)cc1)c1ccc(O)cc1 [4'OH-tamoxifen]
SARS-CoV-2 USA-WA1/2020 [1]; [9]
  EC50: 0.74 µM
HIV-1; ref Unpublished
  Previous target virus activity: yes
[2]; ref Unpublished
  Previous target RNA binding: yes
In vitro [5]
  CC50 at 2 days: 2.7 µM

## C=C(C)Cn1c(NCCCn2ccnc2)nc2c1c(=O)[nH]c(=O)n2C [17a5]
SARS-CoV-2 USA-WA1/2020 [1]; [9]
  EC50: > 20 µM
HIV-1; [7]
  Previous target virus activity: yes
[2]; [7]
  Previous target RNA binding: yes
In vitro [5]
  CC50 at 2 days: > 20 µM

## CCC(=C(c1ccc(OC)cc1)c1ccc(OC)cc1)c1cn(CC(O)CN(C)C)c2ccccc12 (centres unmarked) [Bisphenylindol]
SARS-CoV-2 USA-WA1/2020 [1]; [9]
  EC50: 2.1 µM
HIV-1; [12]
  Previous target virus activity: yes
[2]; [12]
  Previous target RNA binding: yes

## O=C(O)c1cn(C2CC2)c2cc(N3CCNCC3)c(F)cc2c1=O [Cyprofloxacine, reference compound]
SARS-CoV-2 USA-WA1/2020 [1]; [9]
  EC50: > 20 µM
HIV-1; [13]
  Previous target virus activity: yes
[2]; [13]
  Previous target RNA binding: yes

## CN1CCC(=C2c3ccccc3C=Cc3ccccc32)CC1 [Cyprohetadine, reference compound]
HIV-1; [13]
  Previous target virus activity: yes
[2]; [13]
  Previous target RNA binding: yes
In vitro [5]
  CC50 at 2 days: > 20 µM

## O=C1c2c(O)ccc(O)c2C(=O)c2c(NCCNCCO)ccc(NCCNCCO)c21 [Mitoxantrone, reference compound]
SARS-CoV-2 USA-WA1/2020 [1]; [9]
  EC50: 2.4 µM
HIV-1; [13]
  Previous target virus activity: yes
[2]; [13]
  Previous target RNA binding: yes
In vitro [5]
  CC50 at 2 days: 0.806 µM

## CCC(CC)COC(=O)[C@H](C)N[P@](=O)(OC[C@H]1O[C@@](C#N)(c2ccc3c(N)ncnn23)[C@H](O)[C@@H]1O)Oc1ccccc1 [Remdesivir, reference compound]
SCoV2 USA-WA1/2020
  inhibition when added at +4 h: decreased
SARS-CoV-2 USA-WA1/2020 [4]; [10]
  EC50: 0.0104 µM
In vitro [3]
  CC50 at 2 days: > 2 µM
SARS-CoV-2 USA-WA1/2020 [1]; [11]
  EC50: 0.428 µM
In vitro [5]
  CC50 at 2 days: > 20 µM

## CCC(=C(c1ccccc1)c1ccc(OCCN(C)CCOc2ccc(C(=C(CC)c3ccccc3)c3ccccc3)cc2)cc1)c1ccccc1 [Tamoxifen dimer]
SARS-CoV-2 USA-WA1/2020 [1]; [9]
  EC50: > 20 µM
HIV-1; ref Unpublished
  Previous target virus activity: no
[2]; ref Unpublished
  Previous target RNA binding: yes
In vitro [5]
  CC50 at 2 days: > 20 µM

## CCN(CC)CCOc1ccc(C(O)(Cc2ccc(Cl)cc2)c2ccc(C)cc2)cc1 (centres unmarked) [Triparanol, reference compound]
SARS-CoV-2 USA-WA1/2020 [1]; [9]
  EC50: 0.811 µM
HIV-1; [12]
  Previous target virus activity: yes
[2]; [12]
  Previous target RNA binding: yes
In vitro [5]
  CC50 at 2 days: > 20 µM

## CC1CN(C(c2ccccc2)(c2ccccc2)c2ccccc2)CCN1 (centres unmarked) [Trityl-piperazine]
SARS-CoV-2 USA-WA1/2020 [4]; Severe acute respiratory syndrome coronavirus 2, 48 h, 293T-ACE2 cells, MOI 0.25, two days
  EC50: 0.27 µM
In vitro [3]
  CC50 at 2 days: > 3.67 µM
SARS-CoV-2 USA-WA1/2020 [1]; [9]
  EC50: 0.644 µM
HIV-1; [12]
  Previous target virus activity: yes
[2]; [12]
  Previous target RNA binding: yes
In vitro [5]
  CC50 at 2 days: 2.22 µM

## COc1ccc(-c2ccc(-c3ccc(O)c(CCN)c3)c(C)c2)c(CCN)c1 [compound 1]
SARS-CoV-2 USA-WA1/2020 [1]; [9]
  EC50: > 20 µM
[2]; [14]
  Previous target RNA binding: yes
In vitro [5]
  CC50 at 2 days: > 20 µM

## Cc1cc(-c2cc(CCN)ccc2CCN)c(C)cc1-c1ccccc1CCN [compound 4]
SARS-CoV-2 USA-WA1/2020 [1]; [9]
  EC50: > 20 µM
HIV-1; [8]
  Previous target virus activity: yes
[2]; [8]
  Previous target RNA binding: yes
In vitro [5]
  CC50 at 2 days: > 20 µM

## Cc1cc(-c2c(CCN)cccc2CCN)cc(C)c1-c1cc(CCN)c(Oc2ccccc2)c(CCN)c1 [compound 6]
SARS-CoV-2 USA-WA1/2020 [1]; [9]
  EC50: > 20 µM
HIV-1; [14]
  Previous target virus activity: yes
[2]; [14]
  Previous target RNA binding: yes
In vitro [5]
  CC50 at 2 days: > 20 µM

## Cc1cc(-c2c(CCN)cccc2CCN)cc(C)c1-c1cc(CCCN)c(O)c(CCCN)c1 [compound 11]
SARS-CoV-2 USA-WA1/2020 [1]; [9]
  EC50: > 20 µM
HIV-1; [14]
  Previous target virus activity: yes
[2]; [14]
  Previous target RNA binding: yes
In vitro [5]
  CC50 at 2 days: > 20 µM

## Cc1cc(-c2c(CCNC(=N)N)cccc2CCNC(=N)N)cc(C)c1-c1cc(CCCNC(=N)N)cc(CCCNC(=N)N)c1 [compound 18]
SARS-CoV-2 USA-WA1/2020 [1]; [9]
  EC50: > 20 µM
HIV-1; [14]
  Previous target virus activity: yes
[2]; [14]
  Previous target RNA binding: yes
In vitro [5]
  CC50 at 2 days: > 20 µM

## CN(C)CCOc1ccc(C(=C(CCO)c2ccccc2)c2ccccc2)cc1 [βOH-tamoxifen]
SARS-CoV-2 USA-WA1/2020 [1]; [9]
  EC50: 5.4 µM
HIV-1; ref Unpublished
  Previous target virus activity: yes
[2]; ref Unpublished
  Previous target RNA binding: yes
In vitro [5]
  CC50 at 2 days: 22.2 µM

## Cis-clomiphene
SCoV2 RNA elements
  RNA binding preference: bound RNA with stronger affinity than the trans form
HIV-1; ref Unpublished
  Previous target virus activity: yes
[2]; ref Unpublished
  Previous target RNA binding: yes

## Trans-clomiphene
HIV-1; ref Unpublished
  Previous target virus activity: yes
[2]; ref Unpublished
  Previous target RNA binding: yes
